Where two headings read alike, the source gives them in different places.
How the values were obtained:
[1] = tested on: HEPM cell-surface receptors for TGF-β; test: Radioreceptor assay: [125I]-iodo-TGF-β1 in competition with unlabeled TGF-β1, Scatchard analysis; type: binding, human; settings: comparison of growth stimulation and receptor occupancy, FIG. 6
Experimental: (§1) HEPM cells were grown to confluence (1×10^5 cells/well) in 24-well Costar tissue culture plates. Prior to the binding assay, cells were pre-incubated in serum-free growth medium at 37° C. for 4 hours to allow for the dissociation of TGF-β from occupied cells surface receptors. The resulting monolayers were washed 2 times in binding buffer (Dulbecco's MEM+0.1% BSA+25 mM HEPES). 250 μl of binding buffer containing 0.5 μg/ml [^125 I]-iodoTGF-β1, (specific activity of 100 μCi/μg) together with increasing amounts of unlabeled TGF-β1 were added to duplicate wells. Steady state binding was carried out at 4° C. for 3 hours. After incubation cells were washed 3 times with cold binding buffer and solubilized in 200 μl of Triton solution (20 mM HEPES, 1% Triton X-100, 10% glycerol, 0.01% BSA, pH 7.4). Radioactivity was determined using a gamma spectrometer. Non-specific binding was determined in the presence of a 1,000-fold molar excess unlabeled TGF-β1.
The radioreceptor assay described in Materials and Methods was used to characterize the affinity and number of cell-surface receptors for TGF-β on HEPM cells. Specific binding of [^125 I]-iodo-TGF-βin these assays was 20% of the total radioligand present. […] Half-maximal displacement of radioligand occurred at 100 pM (2.6 ng/ml) unlabeled TGF-β1. Competitive binding data were plotted according to the method of Scatchard (Scatchard, et al., 1947, Ann. NY Acad Sci 51:660-672) and the results are presented in FIG. 5. A distinctly curvilinear isotherm was obtained indicating the presence of at least two classes of binding sites on HEPM cells. […] Quantitative analysis determined that HEPM cells contain a total of 287,000 TGF-β receptors per cell (55,400 high affinity and 231,600 low affinity sites).

HEPM cells [2] = test: Stimulation of anchorage independent growth assay (soft agar); type: cell-based, human; settings: 50 pM TGF-β1 at plating, colonies enumerated on day 13
Experimental: FIGS. 3(A) and 3(B) Bioactivity of TGF-β on HEPM cells: stimulation of growth in soft agar. Cells were treated with 50 pM TGF-β1, at the time of plating and colony formation was enumerated on day 13.
A 0.5 ml base layer of 0.5% agar (Agar Noble; Difco Laboratories, Detroit, Mich.) in growth medium was added to 24-well Costar tissue culture plates 0.5 ml 0.3% agar in growth medium containing 1×10^4 HEPM cells and various concentrations of TGF-β or other test samples was overlaid on the base layer of agar in triplicate wells. The plates were incubated at 37° C. in a humidifed atmosphere of 5% CO2 in air for up to 14 days without refeeding. Colonies were enumerated unfixed and unstained. The number of colonies with more than 6 cells were scored.

[3] = tested on: TGF-β receptor on HEPM cells; test: TGF-β receptor down-regulation in TGF-β1 treated HEPM cells, assessed by radioreceptor assay; type: cell-based, human; settings: for Kd: HEPM cells treated 18 hours with 100 pM TGF-β1
Experimental: as §1
Briefly, HEPM cells were treated with 100pM TGF-β1, for 18 hours, washed with serum-free medium, and incubated in fresh serum-free medium for 60 minutes to allow for the disassociation of residually bound TGF-β1. The radioreceptor assay described in Materials and Methods was used to assess the extent of receptor down-regulation in the treated cells relative to untreated control cells. […] The combined total receptor down-regulation observed was 57%.

HEPM cells [4] = test: Growth stimulation assay: incorporation of 5-[125I]iodo-2'-deoxyuridine into DNA of quiescent HEPM cells; type: cell-based, human; settings: 66 h + 6 h radionuclide label
Experimental: FIGS. 1(A) and 1(B) Bioactivity of TGF-β on HEPM cells: incorporation of radionuclide into DNA. Results are presented as percent stimulation vs the picomolar (pM) concentration of TGF-β. Percent stimulation was calculated as follows: treated (cpm)-untreated (cpm)/untreated (cpm) x 100. Panel A: TGF-β1, treatment. Panel B: TGF-β2 treatment.
HEPM cells (5,000 cells/50 μl ) were subcultured in 96-well tissue culture plates (Falcon 30072) in growth medium comprising minimal essential medium (Gibco, Grand Island, N.Y.) supplemented with 10% heat-inactivated fetal bovine serum, 600 μg/ml L-glutamine, 500 μg/ml penicillin and 500 μg/ml streptomycin for a 24-hour period at 37° C. in a humidified 5% CO2 /95% air atosphere. A nondividing, quiescent state of growth was achieved by subsequent incubation for 48 hours in growth medium supplemented with 0.5% fetal bovine serum. Quiescent cells were then stimulated to proliferate by the addition of fetal bovine serum (10 μl ) and test samples of TGF-β1, or TGF-β2 (50 μl). The cells were incubated an additional 66 hours at 37° C. […] The amount of cell growth was measured by the amount of radionuclide incorporated into the DNA of actively growing cells.

HEPM cells [5] = test: Growth stimulation in monolayer monitored by cell counting; type: cell-based, human; settings: 50 pM TGF-β1, 96 hours post-treatment
Experimental: FIG. 2 Bioactivity of TGF-β on HEPM cells: cell proliferation. Cell counts were taken at 24 hour intervals until 120 hours post treatment. The data is presented as the number of cells per well vs incubation time (hours). By 96 hours, cultures treated with 50 pM TGF-β1, ( ) had reached a cell density twice that of untreated cultures ( ).
Alternatively, growth stimulation in monolayer was monitored by cell counting. Cell monolayers were washed with PBS and then treated with 100 μl 0.25% trypsin solution at 37° C. until cells became detached from the culture surface. Fetal bovine serum (100 μl) was then added to each well to inhibit further action by trypsin. The resulting cell suspension was counted by the standard hemacytometer method. The viability of cells, greater than 98% in these examples, was determined by trypan blue dye-exclusion.

[6] = 100 pM TGF-β1, 18 hours, vs control cells

TGF-β1: Transforming growth factor-Beta type 1; two identical disulfide linked subunits having molecular weights of 13,000; recombinant material used
receptors occupied when full biological response is obtained [1]: 20% | mean colony number in soft agar (HEPM cells [2]): 8±1 | high affinity binding sites in treated cells ([3]; 100 pM TGF-β1, 18 hours): 14,000 sites/cell | low affinity binding sites in treated cells ([3]; 100 pM TGF-β1, 18 hours): 108,800 sites/cell | combined total receptor down-regulation [3, 6]: 57% | down-regulation of the high affinity binding sites [3, 6]: 74% | down-regulation of the low affinity binding sites [3, 6]: 53% | Kd ([3]; read-out: kd, high affinity binding sites): 0.04 nM | Kd ([3]; read-out: kd, low affinity binding sites): 0.974 nM | ED50 in stimulating the proliferation of HEPM cells (half-maximal growth stimulation) (HEPM cells [4]): 0.005 nM | cell density compared with untreated cultures (HEPM cells [5]): twice

Reference: patent US5340925A, “Normal human growth regulatory receptor for TGF-β” (Oncogen, priority 1992, dated 1994)
